Entries after “also recorded” stand apart in the source; their conditions may differ.
Experiments:
[1] = test system: prostaglandin E2 (PGE2) production by human vulvar fibroblasts; test: In vitro LPV model: PGE2 production by patient vestibular or vulvar fibroblasts; assay type: cell-based; conditions: for PGE2 production: pre-treatment regimen, 5 nM, activated with IL-1β (10 pg/ml) 48 hr, vestibular and external vulvar fibroblasts, FIG. 4A; for PGE2 levels: post-treatment regimen: IL-1β 30 min first, then 5 nM for 18 hours plus booster dose for 6 hr, already activated cells, FIG. 4C
Method: (§1) FIGS. 4A, 4B, 4C, and 4D are a set of diagrams showing that PGE2 and IL-6 production is reduced by compounds of Formula (I). Patient vestibular or vulvar fibroblasts were pre-treated for 10 hours with Maresin land epi-Maresin 1 at a 5 nM concentration, then activated with IL-1β (Panel A; 10 pg/ml) or bradykinin (Panel B; 100 nM) for 48 hr. Culture media were collected and analyzed for PGE2 (Panel A) or IL-6 (Panel B) content. Patient fibroblasts were also activated first with IL-1β for 30 min then treated with 5 nM Maresin 1 for 18 hours, followed by a booster dose for 6 hr. Culture media were collected and analyzed for PGE2 (Panel C) or IL-6 (Panel D) content. Mean+/−SEM of n=3, ANOVA *p<0.05 vs. activation only (no compounds of Formula (I) (F (I))).
(§2) In this example, a fibroblast-based in vitro LPV model was established. Briefly, fibroblast strains were obtained from two regions (FIG. 1) of the lower genital tract of localized provoked vulvodynia (LPV) cases and pain-free controls in the manner described in Falsetta et al. Am J Obstet Gynecol 2015, vol. 213, pp. 38 e1-12 and Foster et al., Pain 2015, vol. 156, pp. 386-96.
(§3) Over 30 paired fibroblast strains obtained from LPV-afflicted cases (fulfilling Friedrich's Criteria)^25 and age/race-matched (critical variables influencing LPV),^26, 27 pain-free controls were obtained. All subjects who contributed to the library were premenopausal, denied oral corticosteroids, non-steroidal, immunomodulatory, or anti-inflammatory medication use, and reported an absence of systemic/cutaneous inflammatory conditions at the time of sample collection. Mechanical pain thresholds were determined (via a method of limits) (0.5-5 N) using a Wagner algometer. Fibroblast identity was confirmed by microscopy and fibroblast markers (vimentin, collagen); only low passage (˜4) cells are used.
(§4) In this example, assays were carried out to investigate the ability of compounds of Formula (I) to reduce pro-inflammatory and pro-pain mediator production from primary human cells in the in vitro LPV model described in Example 1.
(§5) The inventors used one of two treatment regimens proven effective in vulvar fibroblasts and other cells at low/nanomolar concentrations (1-100 nM): 1) overnight pre-treatment, followed by another treatment 30 min prior to stimulation with pro-inflammatory stimuli for 48 hr with a third dose of a compound of Formula (I) at 24 hr post-challenge, or 2) post-treatment a compound of Formula (I) after a 30 min pre-treatment with inflammatory stimuli, followed by a booster dose 18 hr later. Both treatment regimens are of interest, as compounds of Formula (I) are active throughout the inflammatory process.^5-7 Even the compound of Formula (I) administered after LPV onset are likely to prevent the worsening or spread of LPV pain.

[2] = test system: interleukin-6 (IL-6) production by human vulvar fibroblasts; test: In vitro LPV model: IL-6 production by patient vestibular or vulvar fibroblasts; assay type: cell-based; conditions: for IL-6 production: pre-treatment regimen, 5 nM, activated with bradykinin (100 nM) 48 hr, vestibular and external vulvar fibroblasts, FIG. 4B; for IL-6 levels: post-treatment regimen: IL-1β 30 min first, then 5 nM for 18 hours plus booster dose for 6 hr, already activated cells, FIG. 4D
Method: as §1, §2, §3, §4, §5

[3] = test system: vulvar allodynia (pain threshold); test: Mouse model of LPV: Zymosan-induced vulvar allodynia, pain threshold by electronic von Frey; assay type: in vivo, C57BL/6 mouse; conditions: C57BL/6 mice with established Zymosan-induced allodynia, topical daily 1 μg/mouse/day for 4 weeks
Excerpt: FIGS. 6A, 6B and 6C are a set of photographs and diagrams showing pain testing for in vivo mouse vulvodynia model. Panel A: After Zymosan injection, inflammation and redness become apparent. Arrow indicates injection site. Panel B: Image showing how an electronic von Frey hair (Mousemet) is used to apply force to the mouse vulva. Panel C: Schematic of in vivo mouse model to establish then resolve vulvar allodynia. FIG. 7 is a diagram showing representative pain profile for a C57BL/6 mouse. […] In the mouse model, Zymosan (a pro-inflammatory yeast cell wall preparation) was used to induce sustained vulvar allodynia, measured by pain threshold testing. Inventors initially used a manual von Frey system (MvF)^24, but later switched to an electronic system as detailed herein. […] However, inventors implemented several modifications to improve the robustness of the model including the following: 1) use a genetically tractable inbred strain; 2) validation of the use of an electronic von Frey (EvF) system; 3) assessment of the impact of behavioral conditioning on pain response; 4) weekly collection of vulvovaginal lavages for pro-inflammatory mediator quantification; and 5) testing the ability of a selected compound of Formula (I) (e.g., Maresin 1) to modulate pain and inflammation in our new model. […]

[4] = test system: PGE2 production from mouse vulvar tissue; test: Mouse vulvar explants (4 mm punch biopsy) stimulated with IL-1β: PGE2 production; assay type: cell-based; conditions: FIG. 5
Method: FIG. 5 is a diagram showing that compounds of Formula (I) (F (I)) inhibit PGE2 production from mouse vulvar tissue. Mouse vulvar tissue (4 mm punch biopsies) was collected and bisected then pre-treated in culture medium with either Maresin 1 at indicated concentrations for 18 hours, followed by an additional 18 hours stimulation with IL-1β (10 pg/ml). Culture medium was collected and analyzed for PGE2 content. Mean+/−SEM; n=3 replicate cultures. ANOVA * p<0.05 vs. vehicle.
Inventors first confirmed that mouse vulvar tissues responded to compounds of Formula (I) treatment in vitro by culturing mouse vulvar explants (4 mm punch biopsy). The explants were stimulated with IL-1β, and then assays were carried to assess the ability of Maresin 1 to reduce PGE2 production under the established pre-treatment regimen.
It was also determined that these mice expressed several SPM receptors (e.g., ALX, GPR18). Therefore, inventors proceeded with testing responses to compounds of Formula (I) in the mouse model.

PGE2 in vaginal lavage = test: Mouse model of LPV: PGE2 content in vaginal lavage; assay type: in vivo, C57BL/6 mouse; conditions: C57BL/6 mice with established Zymosan-induced allodynia, topical daily 1 μg/mouse/day for 4 weeks, FIG. 8
Excerpt: FIG. 8 is a diagram showing that PGE2 in vaginal lavage is associated with pain threshold. After induction of allodynia for up to 6 weeks (indicated by reduced pain threshold, red line), Maresin 1 was applied to C57BL/6 mouse vulvas to reduce pain and increase pain threshold. PGE2 content in vaginal lavage samples (blue line) […], indicating pain-associated inflammation waning with treatment. SEM shown, n=8.
Using this approach, inventors confirmed that one could induce vulvar allodynia, measure pain responses via mechanical threshold determination, and assess treatment responses. However, inventors implemented several modifications to improve the robustness of the model including the following: 1) use a genetically tractable inbred strain; 2) validation of the use of an electronic von Frey (EvF) system; 3) assessment of the impact of behavioral conditioning on pain response; 4) weekly collection of vulvovaginal lavages for pro-inflammatory mediator quantification; and 5) testing the ability of a selected compound of Formula (I) (e.g., Maresin 1) to modulate pain and inflammation in our new model. […]

CC/C=C\C/C=C\C[C@H](O)\C=C/C=C/C=C/[C@@H](O)C/C=C\CCC(=O)O [epi-Maresin 1, 7S,14S-dihydroxy-docosa-4Z,8E,10E,12Z,16Z,19Z-hexaenoic acid]
PGE2 production [1]: significantly reduced
IL-6 production [2]: significantly reduced

CC/C=C\C/C=C\C[C@H](O)\C=C/C=C/C=C/[C@H](O)C/C=C\CCC(=O)O [Maresin 1, 7R,14S-dihydroxy-docosa-4Z,8E,10E,12Z,16Z,19Z-hexaenoic acid]
PGE2 levels [1]: significantly reduced
PGE2 levels ([1]; listed as Maresin-1): highly effective in reducing
PGE2 production [1]: significantly reduced
pain threshold ([3]; FIG. 7, 8): complete restoration to the pre-induction thresholds; also recorded: values returned to baseline
pain threshold ([3]; FIG. 7, 8, listed as Maresin-1): increased pain thresholds
IL-6 levels [2]: significantly reduced
IL-6 levels ([2]; listed as Maresin-1): highly effective in reducing
IL-6 production [2]: significantly reduced
PGE2 responses following IL-1β treatment ([4]; pre-treated 18 hours, then 18 hours IL-1β (10 pg/ml)): significantly suppressed
lowest dose with significant suppression of PGE2 response ([4]; pre-treatment regimen, IL-1β (10 pg/ml)): 1 nM
PGE2 levels in vulvovaginal lavage (PGE2 in vaginal lavage): suppressed and maintained at levels below baseline
PGE2 levels in vulvovaginal lavage (PGE2 in vaginal lavage; listed as Maresin-1): suppressing PGE2 levels

— patent US11400057B2, “Treatment of vulvar pain” (University of Rochester, priority 2018, dated 2022)
